# Experimental data published in ChEMBL document CHEMBL5346973 (J Med Chem, 2023).
# How the values were obtained:
# [1] = target: Nicotinic acetylcholine receptor alpha9/alpha10 (Rattus norvegicus, UniProt P43144+Q9JLB5); assay: Antagonist activity at rat alpha9alpha10 nACh receptor expressed in Xenopus oocyte assessed as inhibition of acetylcholine-induced response at -70 mV holding potential by voltage-clamp based electrophysiological assay; format: cell-based
# [2] = target: Neuronal acetylcholine receptor subunit alpha-7 (Rattus norvegicus, UniProt Q05941); assay: Antagonist activity at rat alpha7 nACh receptor expressed in Xenopus oocyte assessed as inhibition of acetylcholine-induced response at -70 mV holding potential by voltage-clamp based electrophysiological assay; format: cell-based
# Sequence of Neuronal acetylcholine receptor subunit alpha-7 (Q05941 whole entry): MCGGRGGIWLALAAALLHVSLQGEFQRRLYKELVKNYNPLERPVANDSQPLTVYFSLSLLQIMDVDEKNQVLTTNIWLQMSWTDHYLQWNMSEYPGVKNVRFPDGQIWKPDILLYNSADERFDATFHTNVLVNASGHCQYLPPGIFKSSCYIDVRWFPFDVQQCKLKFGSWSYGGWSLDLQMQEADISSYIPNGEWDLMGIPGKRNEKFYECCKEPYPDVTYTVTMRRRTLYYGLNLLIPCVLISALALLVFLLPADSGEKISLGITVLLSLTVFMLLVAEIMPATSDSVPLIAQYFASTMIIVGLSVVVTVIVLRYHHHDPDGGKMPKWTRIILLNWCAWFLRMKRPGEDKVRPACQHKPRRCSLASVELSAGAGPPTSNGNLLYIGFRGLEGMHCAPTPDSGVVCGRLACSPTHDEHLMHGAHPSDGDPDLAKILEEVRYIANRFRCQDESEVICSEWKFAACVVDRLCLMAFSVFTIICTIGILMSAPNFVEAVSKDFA
# Sequence of Nicotinic acetylcholine receptor alpha9/alpha10 (P43144 whole entry): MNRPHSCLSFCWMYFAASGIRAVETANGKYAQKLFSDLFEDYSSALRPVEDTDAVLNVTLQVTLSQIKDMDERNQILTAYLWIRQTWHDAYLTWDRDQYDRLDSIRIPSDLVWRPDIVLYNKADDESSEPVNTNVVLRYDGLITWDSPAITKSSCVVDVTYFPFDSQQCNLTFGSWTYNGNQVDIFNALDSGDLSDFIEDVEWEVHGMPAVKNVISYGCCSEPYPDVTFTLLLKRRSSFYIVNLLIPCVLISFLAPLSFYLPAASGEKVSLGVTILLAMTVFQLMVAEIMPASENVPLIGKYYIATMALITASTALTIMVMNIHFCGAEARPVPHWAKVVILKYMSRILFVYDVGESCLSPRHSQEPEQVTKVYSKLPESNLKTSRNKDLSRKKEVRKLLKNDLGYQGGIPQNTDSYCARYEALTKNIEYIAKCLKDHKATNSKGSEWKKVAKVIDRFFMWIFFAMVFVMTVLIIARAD
# Sequence of Nicotinic acetylcholine receptor alpha9/alpha10 (Q9JLB5 whole entry): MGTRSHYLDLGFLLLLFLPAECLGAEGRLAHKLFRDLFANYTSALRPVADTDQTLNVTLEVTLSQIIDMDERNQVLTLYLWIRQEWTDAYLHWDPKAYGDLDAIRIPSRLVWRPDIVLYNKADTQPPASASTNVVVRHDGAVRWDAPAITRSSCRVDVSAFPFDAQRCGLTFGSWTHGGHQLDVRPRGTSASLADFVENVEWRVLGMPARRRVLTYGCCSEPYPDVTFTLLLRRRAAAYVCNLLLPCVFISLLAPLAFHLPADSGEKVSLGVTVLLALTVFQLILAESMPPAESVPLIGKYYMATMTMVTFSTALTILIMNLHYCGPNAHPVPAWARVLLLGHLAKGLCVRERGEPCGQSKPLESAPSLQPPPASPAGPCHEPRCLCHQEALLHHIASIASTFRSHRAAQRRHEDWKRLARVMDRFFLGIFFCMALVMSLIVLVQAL
smiles,measurement,setting,value
CC[C@H](C)[C@H]1NC(=O)[C@H](CCCNC(=N)N)NC(=O)[C@H](CCCNC(=N)N)NC(=O)[C@@H](NC(=O)[C@H](Cc2ccc(O)cc2)NC(=O)[C@H](CCCNC(=N)N)NC(=O)[C@H](CCCNC(=N)N)NC(=O)[C@H](CCCNC(=N)N)NC(=O)[C@H](CCCNC(=N)N)NC(=O)[C@H](CC(=O)O)NC(=O)[C@H](Cc2ccc(O)cc2)NC(=O)[C@@H]2CCCN2C(=O)[C@H](CO)NC(=O)[C@H](CCCNC(=N)N)NC(=O)[C@@H]2CSSC[C@H](NC(=O)[C@@H](N)[C@@H](C)O)C(=O)N[C@@H](C)C(=O)N[C@@H](CO)C(=O)N[C@@H](CO)C(=O)NCC(=O)N[C@@H](CCCNC(=N)N)C(=O)N[C@@H](Cc3ccc(O)cc3)C(=O)N2)CSSC[C@@H](C(=O)N[C@H](C(=O)O)C(C)C)NC(=O)[C@H](C)NC(=O)[C@H](CC(=O)O)NC(=O)[C@H]([C@@H](C)O)NC1=O,IC50,[1],74 nM
same,IC50,[2],1130 nM
CC[C@H](C)[C@@H]1NC(=O)[C@H](CCCNC(=N)N)NC(=O)[C@H](CCCNC(=N)N)NC(=O)[C@@H]2CSSC[C@H](NC(=O)[C@H](Cc3ccc(O)cc3)NC(=O)[C@H](CCCNC(=N)N)NC(=O)CNC(=O)[C@H](CO)NC(=O)[C@H](CO)NC(=O)[C@H](C)NC(=O)[C@@H](NC(=O)[C@@H](N)[C@@H](C)O)CSSC[C@@H](C(=O)N[C@H](C(=O)O)C(C)C)NC(=O)[C@H](C)NC(=O)[C@H](CC(=O)O)NC(=O)[C@H]([C@@H](C)O)NC1=O)C(=O)N[C@@H](CCCNC(=N)N)C(=O)N[C@@H](CO)C(=O)N1CCC[C@H]1C(=O)N[C@@H](Cc1ccc(O)cc1)C(=O)N[C@@H](CC(=O)O)C(=O)N[C@@H](CCCNC(=N)N)C(=O)N[C@@H](CCCNC(=N)N)C(=O)N[C@@H](CCCNC(=N)N)C(=O)N[C@@H](CCCNC(=N)N)C(=O)N[C@@H](Cc1ccc(O)cc1)C(=O)N2,IC50,[1],37 nM
same,IC50,[2],9050 nM
